Measurements reported in publication PMC8778818, “Synthesis, Structural Characterization and Anticancer Activity of New 5-Trifluoromethyl-2-thioxo-thiazolo[4,5-d]pyrimidine Derivatives” (Pharmaceuticals, 2022).
Values joined by “and” are separate entries in the source; they are usually repeats but may differ in a detail not shown here. Equal values may be shown once. “Also recorded” adds a separate entry of the source. Read-outs that look alike come from different tables or passages of the source.

Columns and labels:
SK-MEL-2 = test: NCI-60 screen, Melanoma SK-MEL-2; assay type: cell-based, human; conditions: for Growth of Cells (%): SK-MEL-2, 10^−5 M one dose
MDA-MB-435 = test: NCI-60 screen, Melanoma MDA-MB-435; assay type: cell-based, human; conditions: for Growth of Cells (%): MDA-MB-435, 10^−5 M one dose
Protocol: The search for the cytotoxic activity of new derivatives usually starts with in vitro cell-based screening. Four compounds 2b (NSC D-745983/1), 3b (NSC D-766111/1), 4b (NSC D-785591/1) and 4c (NSC D-771706/1), selected by the National Cancer Institute were tested in the anticancer screen for a panel of approximately 60 human disease-oriented tumor cell lines, organized into subpanels derived from nine human cancer types—leukemia, melanoma, and cancers of the lung, colon, brain, breast, ovary, prostate, and kidney. They were initially tested at only one concentration of 10 µM (10^−5 M) for each cell line, which were inoculated and preincubated on a microtiter plate for […]. The results of the one-dose anticancer assay for the tested new compounds are reported as the percentage of the treated cell growth in comparison with untreated no-drug control. This allows for detection of the growth inhibition—values 0–100 and cytotoxicity; negative numbers mean cell death.
Antitumor activity in five dose testing (10^−4−10^−8 M) is expressed by three different dose–response parameters for each of the 60 human tumor cell lines. The GI50 value (molar concentration causing a half-growth inhibition), TGI (molar concentration required for total growth inhibition), which signifies the cytostatic effect, and LC50 (molar concentration of the compound required for 50% cell death). LC50 signifies the cytotoxic effect. […] Nevertheless, the selectivity for GI50 can be seen for several cell lines within subpanel leukemia (SR, log GI50 −6.36) and non-small cell lung cancer (NCI-H522, log GI50 −6.69).
The antitumor screening (NCI-60) was performed at the National Cancer Institute, Bethesda, USA. A total panel of approximately 60 human tumor cell lines derived from nine different cancer types (leukemia, non-small cell lung, colon, brain, melanoma, ovarian, renal, prostate and breast) formed the basis of this in vitro test. The origins and processing of the cell lines used in the study were described previously. First, the compounds were evaluated in a primary anticancer assay at 10^−5 M. Results for each tested compound are reported as the percent of growth of the treated cells. […] The human tumor cell lines of the cancer screening panel were grown in an RMPI 1640 medium containing 5% fetal bovine serum and 2 mM of L-glutamine. Each cell line was inoculated and preincubated at 37 °C, 5% CO2, 95% air and 100% relative humidity for 24 h, before the addition of the test compound into 96-well microtiter plates in 100 µL at plating densities ranging from 5000 to 40,000 cells/well. The density of inoculum depends on the type of tumor cell and its growth characteristics. The screened compounds were solubilized in dimethyl sulfoxide at 400-fold the desired final concentration and stored frozen. At the time of the test agents’ addition, an aliquot of frozen concentrate was thawed and diluted to twice the desired final concentration with complete medium containing 50 µg/mL gentamicin. Next, the test compounds were evaluated at the four additional 10-fold dilutions to reach the final concentrations plus control. Aliquots of 100 µL of the different dilutions (100, 10, 1, […] µM/mL) of the tested compounds were added to microtiter wells, and the culture was incubated for 48 h under the same conditions. Cell were fixed in situ by the addition of 50 µL of cold 50% trichloroacetic acid and incubated for 60 min at 4 °C. The supernatant was discarded; plates were washed five times with water and air-dried. Sulforhodamine B at 0.4% in 1% acetic acid, 100 µL, was added to each well, then plates were incubated for 10 min at room temperature. Unbound dye was removed by washing five times with 1% acetic acid and air dried. The protein-bound stain was solubilized with a […] trizma base and the absorbance was read on an automated plate reader. A wavelength of 515 nm was used to read optical densities. […]

SF-295 = test: NCI-60 screen, CNS Cancer SF-295; assay type: cell-based, human; conditions: for Growth of Cells (%): SF-295, 10^−5 M one dose
A498 = test: NCI-60 screen, Renal Cancer A498; assay type: cell-based, human; conditions: for Growth of Cells (%): A498, 10^−5 M one dose
NCI-H522 = test: NCI-60 screen, Non-Small Cell Lung Cancer NCI-H522; assay type: cell-based, human; conditions: for Growth of Cells (%): NCI-H522, 10^−5 M one dose
[1] = tested on: 60 human cancer cell lines; test: NCI-60 anticancer screen, full panel; assay type: cell-based; conditions: for activity in the one-dose assay (in words) / Mean Growth %: 10^−5 M one dose; for Mean Growth %: mean over the panel
RPMI-8226 = test: NCI-60 screen, Leukemia RPMI-8226; assay type: cell-based, human; conditions: for Growth of Cells (%): RPMI-8226, 10^−5 M one dose
MDA-MB-231/ATCC = test: NCI-60 screen, Breast Cancer MDA-MB-231/ATCC; assay type: cell-based; conditions: for Growth of Cells (%): 10^−5 M one dose
[2] = Homo sapiens, SK-MEL-2, five doses 10^−4–10^−8 M
[3] = Homo sapiens, SF-295, five doses 10^−4–10^−8 M
[4] = Homo sapiens, NCI-H522, five doses 10^−4–10^−8 M
[5] = over the panel, values > −4.00 excluded

With `O=c1[nH]c(C(F)(F)F)nc2c1sc(=S)n2-c1ccccc1` [Compound 2b, 3-phenyl-2-thioxo-5-(trifluoromethyl)-2,3-dihydro[1, 3]thiazolo[4,5-d]pyrimidin-7(6H)-one] as the compound, how does the “Growth of Cells (%)” value (SK-MEL-2) read?
Its value is 97.36%.

And the “Growth of Cells (%)” value (MDA-MB-435)?
Its value is 114.64%.

And the “Growth of Cells (%)” value (SF-295)?
The value was 116.63%.

What about the “Growth of Cells (%)” value (A498) of the same compound?
Its value is 90.58%.

And the “Growth of Cells (%)” value (NCI-H522)?
The value was 90.35%.

And the “activity in the one-dose assay (in words)” value [1]?
The value was “insufficient activity”.

What about the “Mean Growth %” value [1] of the same compound?
The value was 103.88%.

And the “Growth of Cells (%)” value (RPMI-8226)?
The value was 108.14%.

And the “Growth of Cells (%)” value (MDA-MB-231/ATCC; MDA-MB-231/ATCC)?
Its value is 107.13%.

Which GI50 (SK-MEL-2; [2]) does the source give for `FC(F)(F)c1nc(Cl)c2sc(=S)n(-c3ccccc3)c2n1` [Compound 3b, 7-chloro-3-phenyl-5-(trifluoromethyl)[1, 3]thiazolo[4,5-d]pyrimidine-2(3H)-thione] here?
Its GI50 is 2 µM.

And the LC50 (SK-MEL-2; [2])?
Its LC50 is 7.24 µM.

What about the “Growth of Cells (%)” value (SK-MEL-2) of the same compound?
The value was 55.66%.

And the “log TGI” value (SK-MEL-2; SK-MEL-2, five doses 10^−4–10^−8 M)?
The value was −5.42 log M.

And the GI50 (MDA-MB-435; Homo sapiens, MDA-MB-435, five doses 10^−4–10^−8 M)?
The GI50 was 1.86 µM.

What about the CC50 (MDA-MB-435; Homo sapiens, MDA-MB-435, five doses 10^−4–10^−8 M, read-out: log LC50 (the source's name) (converted)) of the same compound?
Its CC50 is 7.41 µM.

What about the “Growth of Cells (%)” value (MDA-MB-435) of the same compound?
The value was 6.26%.

What about the “log TGI” value (MDA-MB-435; MDA-MB-435, five doses 10^−4–10^−8 M) of the same compound?
The value was −5.43 log M.

And the GI50 (SF-295; [3])?
The GI50 was 12.3 µM.

And the LC50 (SF-295; [3])?
The LC50 was 52.5 µM.

What about the “log TGI” value (SF-295; SF-295, five doses 10^−4–10^−8 M) of the same compound?
Its value is −4.59 log M.

And the “Growth of Cells (%)” value (A498)?
Its value is 91.46%.

And the “log TGI” value (A498; A498, five doses 10^−4–10^−8 M)?
Its value is −4.57 log M.

And the GI50 (A498; Homo sapiens, A498, five doses 10^−4–10^−8 M)?
The GI50 was 13.5 µM.

And the CC50 (A498; Homo sapiens, A498, five doses 10^−4–10^−8 M, read-out: log LC50 (the source's name) (converted))?
Its CC50 is 52.5 µM.

What about the GI50 (NCI-H522; [4]) of the same compound?
Its GI50 is 0.204 µM.

And the LC50 (NCI-H522; [4])?
The LC50 was 1.51 µM.

What about the “Growth of Cells (%)” value (NCI-H522) of the same compound?
The value was −67.57%.

And the “log TGI” value (NCI-H522; NCI-H522, five doses 10^−4–10^−8 M)?
Its value is −6.33 log M.

What about the “Mean Growth %” value [1] of the same compound?
Its value is 29.51%.

What about the GI50 ([1]; Homo sapiens, five doses 10^−4–10^−8 M, mean graph midpoint over all tested cell lines, read-out: log GI50 Mean MG_MID (converted)) of the same compound?
Its GI50 is 2.19 µM.

What about the CC50 ([1]; Homo sapiens, five doses 10^−4–10^−8 M, mean graph midpoint over all tested cell lines, read-out: log LC50 Mean MG_MID (converted)) of the same compound?
The CC50 was 16.6 µM.

What about the CC50 ([1]; Homo sapiens, one number printed for the pair, read-out: log LC50 MG_MID/Δ (converted)) of the same compound?
Its CC50 is 16.6 µM.

And the “log TGI Mean MG_MID” value ([1]; five doses 10^−4–10^−8 M, mean graph midpoint over all tested cell lines)?
Its value is −5.30 log M and −5.3 log M.

What about the “N2: number of cell lines giving positive log TGI (≤−4.01)” value ([1]; of N = 58 tested cell lines) of the same compound?
The value was 58.

What about the “log GI50 Range” value [1, 5] of the same compound?
The value was −4.86 to −6.69 log M.

What about the “log LC50 Range” value [1, 5] of the same compound?
The value was −4.03 to −5.82 log M.

What about the “log TGI Range” value [1, 5] of the same compound?
The value was −4.31 to −6.33 log M.

What about the GI50 (RPMI-8226; Homo sapiens, RPMI-8226, five doses 10^−4–10^−8 M) of the same compound?
The GI50 was 2.51 µM.

What about the CC50 (RPMI-8226; Homo sapiens, RPMI-8226, five doses 10^−4–10^−8 M, read-out: log LC50 (the source's name) (converted)) of the same compound?
The CC50 was over 100 µM.

What about the “Growth of Cells (%)” value (RPMI-8226) of the same compound?
Its value is 44.45%.

And the “log TGI” value (RPMI-8226; RPMI-8226, five doses 10^−4–10^−8 M)?
Its value is −5.11 log M.

What about the GI50 (MDA-MB-231/ATCC; Homo sapiens, MDA-MB-231, read-out: log GI50 (converted)) of the same compound?
The GI50 was 2 µM.

And the CC50 (MDA-MB-231/ATCC; Homo sapiens, MDA-MB-231/ATCC, five doses 10^−4–10^−8 M, read-out: log LC50 (the source's name) (converted))?
The CC50 was 7.59 µM.

What about the “Growth of Cells (%)” value (MDA-MB-231/ATCC; MDA-MB-231/ATCC) of the same compound?
The value was 13.85%.

And the “log TGI” value (MDA-MB-231/ATCC; MDA-MB-231/ATCC, five doses 10^−4–10^−8 M)?
Its value is −5.41 log M.

`CCNc1nc(C(F)(F)F)nc2c1sc(=S)n2-c1ccccc1` [Compound 4b, 7-(ethylamino)-3-phenyl-5-(trifluoromethyl)[1, 3]thiazolo[4,5-d]pyrimidine-2(3H)-thione] was tested. Which “Growth of Cells (%)” value (SK-MEL-2) did it give?
Its value is 88.08%.

What about the “Growth of Cells (%)” value (MDA-MB-435) of the same compound?
The value was 112.84%.

What about the “Growth of Cells (%)” value (SF-295) of the same compound?
Its value is 94.05%.

What about the “Growth of Cells (%)” value (NCI-H522) of the same compound?
Its value is 70.40%.

What about the “activity in the one-dose assay (in words)” value [1] of the same compound?
Its value is “insufficient activity; also recorded: inactive”.

And the “Mean Growth %” value [1]?
Its value is 96.94%.

And the “Growth of Cells (%)” value (MDA-MB-231/ATCC; MDA-MB-231/ATCC)?
Its value is 85.06%.

Which results are given for `Fc1ccc(CNc2nc(C(F)(F)F)nc3c2sc(=S)n3-c2ccccc2)cc1` [Compound 4c]?
Growth of Cells (%) (SK-MEL-2): 95.77%; Growth of Cells (%) (MDA-MB-435): 102.86%; Growth of Cells (%) (SF-295): 91.10%; Growth of Cells (%) (A498): 121.43%; Growth of Cells (%) (NCI-H522): 90.73%; activity in the one-dose assay (in words) [1]: insufficient activity; also recorded: inactive; Mean Growth % [1]: 105.13%; Growth of Cells (%) (RPMI-8226): 104.96%; Growth of Cells (%) (MDA-MB-231/ATCC; MDA-MB-231/ATCC): 119.48%
